Experiments:
E. coli ATCC 25922 = experiment: Sensitizer MIC assay (vancomycin); type: cell-based; conditions: vancomycin; 100 μM compound; type strain
Method: (§1) To test for the sensitizer properties of the compounds, the inventors then performed a sensitizer MIC assay. To this end, E. coli BW25113, E. coli JW2496-3, and E. coli ATCC 25922 inocula were prepared as described above. Each well of a 96-well plate was prefilled with a fixed compound concentration of 100 μM and a dilution series of Vancomycin ranging from […]. A sensitizing effect was defined as reduction of the MIC value of Vancomycin of the respective test strain.

E. coli JW2496-3 = experiment: Sensitizer MIC assay (vancomycin); type: cell-based; conditions: 100 μM compound, more susceptible strain
Method: as §1

E. coli BW25113 = experiment: Sensitizer MIC assay (vancomycin); type: cell-based; conditions: 100 μM compound, wildtype strain
Method: as §1

[1] = system: E. coli BW25113, E. coli JW2496-3, E. coli ATCC 25922; experiment: Minimal inhibitory concentration assay (bactericidal/bacteriostatic assessment); type: cell-based; conditions: dilution series 100-1.7 μM
From the text: The intended effect of a SurA inhibitor should be the induction of a disturbance of the outer membrane composition resulting in an increased susceptibility to antibiotic treatment. Of note, Vancomycin is typically not used to treat infections with Gram-negative bacteria, because it is excluded by the OM and not efficient at concentrations that could be achieved in patients. However, at appropriate dosing in vitro it can be used to detect outer membrane defects. For determining a potential sensitizing effect of Vancomycin treatment, the inventors first tested whether the compounds at hand were bactericidal per se. Therefore, the inventors performed a minimal inhibitory concentration (MIC) assay. To this end, 5 ml overnight cultures of E. coli BW25113 (Keio-Collection reference strain), E. coli JW2496-3 (Keio-Collection single gene knockout for bamB, which suffers from decreased outer membrane integrity) and E. coli ATCC 25922 (a reference strain recommended for antibiotic susceptibility testing) were grown in Mueller Hinton Broth, Cation adjusted (MHB-II). The next day, the OD was adjusted to obtain 1*10^8 CFU/ml using fresh MHB-II. Next, this bacterial solution was diluted 1:100 into 20 ml fresh MHB-II. 50 μl of this bacteria solution were then transferred into each well of a 96-well plate prefilled with 50 μl MHB-II supplemented with the desired compounds. The test plates for the bactericidal assessment contained dilution series of the compounds from 100-1.7 μM. Plates were sealed with a gas permeable membrane and incubated o/n at 37° C. in a humid chamber without shaking. After o/n incubation, bacterial growth was quantified by measuring the optical density at 600 nm wavelength in a multiplate reader. Compounds showing no growth inhibition at 100 μM were considered non-bactericidal. Of note, the bactericidal effect of Vancomycin was assessed similarly for each test strain using Vancomycin concentrations ranging from […]. This was done to identify a Vancomycin concentration at which the strains just managed to survive.

SurA = SurA (Escherichia coli, UniProt P0ABZ6); experiment: Luciferase-based SurA activity assay (primary assay, in-house); type: biochemical, E. coli; conditions: n/d: no signal detected; for Primary Assay ICmax: QHL-10 derivatives, dose response up to 125 μM; for Primary Assay Amplitude: amplitude of signal
Sequence of SurA (P0ABZ6 21-428): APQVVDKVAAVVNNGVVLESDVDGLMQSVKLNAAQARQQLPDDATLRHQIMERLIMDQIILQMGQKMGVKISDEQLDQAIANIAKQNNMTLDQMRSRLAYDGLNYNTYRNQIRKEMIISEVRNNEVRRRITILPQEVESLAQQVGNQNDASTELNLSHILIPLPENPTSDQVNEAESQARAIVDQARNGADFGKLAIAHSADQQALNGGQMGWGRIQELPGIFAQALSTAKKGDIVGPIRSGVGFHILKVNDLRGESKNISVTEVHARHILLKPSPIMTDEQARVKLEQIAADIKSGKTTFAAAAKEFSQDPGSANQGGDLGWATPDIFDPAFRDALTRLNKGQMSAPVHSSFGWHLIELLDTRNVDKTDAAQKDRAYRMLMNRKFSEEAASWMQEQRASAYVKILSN
From the text: The biological function of SurA is to bind and to keep outer membrane proteins that have reached the periplasm in an unfolded but folding-competent state. The inventors' assay is based on this interaction and uses firefly Luciferase (fLuc) as a non-native substrate. […] This is exploited in the assay (FIG. 3). The loss of tertiary structure of fLuc leads to the exposure of binding sites for SurA. It is known that SurA binds selectively to a special group of substrates. These substrates have in common the specific patterns of hydrophobic amino acids that are highly enriched in the beta strands of integral outer membrane proteins. These motifs are present in OMPs of all Gram-negative bacteria and in fLuc as well. Upon mild heat treatment of fLuc and its subsequent partial unfolding, fLuc is accepted as a substrate by SurA. Of note, these intermediates served as reporter substrates to determine the activity of a […] folding chaperone. […] This interaction remains stable upon temperature reduction. Next, the temperature of the assay is reduced to room temperature and luciferase activity is subsequently measured by addition of Luciferin and ATP. In conditions without SurA, fLuc will refold into its active conformation resulting in a luminescence signal.
In short, the Luciferase based SurA activity assay was performed in SurA Activity Assay Buffer (40 mM HEPES pH 7.4, 20 mM MgSO4, 0.5 g/I BSA). SurA aliquots were thawn at RT, activated by mild heat treatment and cooled down to RT for 10 min. […] Solution A containing 10 mM ATP as well as 0.3 mM Luciferin (Promega Beetle Luciferin, Potassium Salt) in water was prepared. Luciferase working solution was prepared by diluting 1 ml Luciferase working stock (100 nM) with 9 ml assay buffer. 33 μl of the protein solution were added to every 2nd row of a well of a 384-well PS, white, flat bottom plate. […] Subsequently, 2 μl of compound in DMSO were added in quadruplicates (4 wells each of protein solution and buffer controls). These compound solutions could contain either various compounds or different dilutions of the same compound allowing screening inhibitor activity in a dose dependent manner. After compound addition, plates were incubated 15 min at RT. After this incubation, 5 μl of Luciferase working solution were added to each well. Next, the plates were incubated 25 min at 38° C. to partially unfold the Luciferase. Subsequently, the assay plate was cooled for 5 min at 4° C. followed by 10 min incubation at RT prior to luminescence measurement. Luminescence was measured in a TECAN infinite M200 pro plate reader for each well individually after injection of 10 μl Solution A.

In the case of `NC(=O)c1nc(Cc2ccc(OCC(=O)O)cc2)[nH]c1NC(=O)c1ccccc1-c1ccccc1` [Compound 2c, 2-(4-((5-([1,1′-biphenyl]-2-carboxamido)-4-carbamoyl-1H-imidazol-2-yl)methyl)phenoxy)acetic acid], the “Sensitizer MIC Assay (log2-fold reduction of MIC in presence of compound) ATCC25922” value (E. coli ATCC 25922) is reported as 0 log2-fold, the “Sensitizer MIC Assay (log2-fold reduction of MIC in presence of compound) JW2496-3” value (E. coli JW2496-3) is reported as 0 log2-fold and the “Sensitizer MIC Assay (log2-fold reduction of MIC in presence of compound) BW25113” value (E. coli BW25113) is reported as 0 log2-fold. For the same molecule, the “Bacteriostatic MIC Assay Result” value [1] was “non-bacteriostatic”.

With `NC(=O)c1nc(Cc2ccccc2)[nH]c1NC(=O)c1ccc(-c2ccccc2)cc1` [Compound 1e, 5-([1,1′-biphenyl]-4-carboxamido)-2-benzyl-1H-imidazole-4-carboxamide] the “Sensitizer MIC Assay (log2-fold reduction of MIC in presence of compound) ATCC25922” value (E. coli ATCC 25922) was 0 log2-fold, the “Sensitizer MIC Assay (log2-fold reduction of MIC in presence of compound) JW2496-3” value (E. coli JW2496-3) was 0 log2-fold and the “Sensitizer MIC Assay (log2-fold reduction of MIC in presence of compound) BW25113” value (E. coli BW25113) was 0 log2-fold. The “Bacteriostatic MIC Assay Result” value [1] was “non-bacteriostatic”, the “Primary Assay ICmax” value (SurA) was 16 µM and the “Primary Assay Amplitude” value (SurA) was “high”.

With `CCOC(=O)COc1ccc(Cc2nc(C(N)=O)c(NC(=O)c3cccc(-c4ccccc4)c3)[nH]2)cc1` [Compound 1b, Ethyl 2-(4-((5-([1,1′-biphenyl]-3-carboxamido)-4-carbamoyl-1H-imidazol-2-yl)methyl)phenoxy)acetate] the “Bacteriostatic MIC Assay Result” value [1] was “non-bacteriostatic”.

`NC(=O)c1nc(-c2ccccc2O)[nH]c1NC(=O)c1ccc(-c2ccccc2)cc1` [Compound 3c, 5-([1,1′-biphenyl]-4-carboxamido)-2-(2-hydroxyphenyl)-1H-imidazole-4-carboxamide] was tested, and the “Sensitizer MIC Assay (log2-fold reduction of MIC in presence of compound) ATCC25922” value (E. coli ATCC 25922) was 1-2 log2-fold, the “Sensitizer MIC Assay (log2-fold reduction of MIC in presence of compound) JW2496-3” value (E. coli JW2496-3) was 1-2 log2-fold and the “Sensitizer MIC Assay (log2-fold reduction of MIC in presence of compound) BW25113” value (E. coli BW25113) was 0 log2-fold. The “Bacteriostatic MIC Assay Result” value [1] was “non-bacteriostatic”, the “Primary Assay ICmax” value (SurA) was 8 µM and the “Primary Assay Amplitude” value (SurA) was “high”.

In the case of `NC(=O)c1nc(-c2ccccc2O)[nH]c1NC(=O)Cc1cccc2ccccc12` [Compound 3j, 2-(2-hydroxyphenyl)-5-(2-(naphthalen-1-yl)acetamido)-1H-imidazole-4-carboxamide], the “Sensitizer MIC Assay (log2-fold reduction of MIC in presence of compound) ATCC25922” value (E. coli ATCC 25922) is reported as 1 log2-fold, the “Sensitizer MIC Assay (log2-fold reduction of MIC in presence of compound) JW2496-3” value (E. coli JW2496-3) is reported as 1-4 log2-fold and the “Sensitizer MIC Assay (log2-fold reduction of MIC in presence of compound) BW25113” value (E. coli BW25113) is reported as 0 log2-fold. The “Bacteriostatic MIC Assay Result” value [1] was “non-bacteriostatic”.

`NC(=O)c1nc(-c2cc(F)c(F)c(F)c2)[nH]c1NC(=O)c1ccccc1OCc1ccccc1` [Compound 3p, 5-(2-(benzyloxy)benzamido)-2-(3,4,5-trifluorophenyl)-1H-imidazole-4-carboxamide] was tested, and the “Bacteriostatic MIC Assay Result” value [1] was “slightly”.

With `COc1ccc(Cc2nc(C(N)=O)c(NC(=O)c3ccc(-c4ccccc4)cc3)[nH]2)cc1` [Compound 1f, 5-([1,1′-biphenyl]-4-carboxamido)-2-(4-methoxybenzyl)-1H-imidazole-4-carboxamide] the “Bacteriostatic MIC Assay Result” value [1] was “slightly”, the “Primary Assay ICmax” value (SurA) was 16 µM and the “Primary Assay Amplitude” value (SurA) was “high”.

With `CCOc1ccc2ccccc2c1C(=O)Nc1[nH]c(-c2cccc(N)c2)nc1C(N)=O` [Compound 3e, 2-(3-aminophenyl)-5-(2-ethoxy-1-naphthamido)-1H-imidazole-4-carboxamide] the “Sensitizer MIC Assay (log2-fold reduction of MIC in presence of compound) ATCC25922” value (E. coli ATCC 25922) was 0 log2-fold, the “Sensitizer MIC Assay (log2-fold reduction of MIC in presence of compound) JW2496-3” value (E. coli JW2496-3) was 0 log2-fold and the “Sensitizer MIC Assay (log2-fold reduction of MIC in presence of compound) BW25113” value (E. coli BW25113) was 0 log2-fold. The “Bacteriostatic MIC Assay Result” value [1] was “non-bacteriostatic”, the “Primary Assay ICmax” value (SurA) was 64 µM and the “Primary Assay Amplitude” value (SurA) was “low”.

With `NC(=O)c1nc(-c2cccc(N)c2)[nH]c1NC(=O)c1ccc(-c2ccccc2)cc1` [Compound 3b, 5-([1,1′-biphenyl]-4-carboxamido)-2-(3-aminophenyl)-1H-imidazole-4-carboxamide] the “Sensitizer MIC Assay (log2-fold reduction of MIC in presence of compound) ATCC25922” value (E. coli ATCC 25922) was 1 log2-fold, the “Sensitizer MIC Assay (log2-fold reduction of MIC in presence of compound) JW2496-3” value (E. coli JW2496-3) was 1-3 log2-fold and the “Sensitizer MIC Assay (log2-fold reduction of MIC in presence of compound) BW25113” value (E. coli BW25113) was 1 log2-fold. The “Bacteriostatic MIC Assay Result” value [1] was “non-bacteriostatic”, the “Primary Assay ICmax” value (SurA) was 8 µM and the “Primary Assay Amplitude” value (SurA) was “high”.

In the case of `NC(=O)c1nc(-c2ccc(F)c(N)c2)[nH]c1NC(=O)Cc1cccc2ccccc12` [Compound 3k, 2-(3-amino-4-fluorophenyl)-5-(2-(naphthalen-1-yl)acetamido)-1H-imidazole-4-carboxamide], the “Sensitizer MIC Assay (log2-fold reduction of MIC in presence of compound) ATCC25922” value (E. coli ATCC 25922) is reported as 0 log2-fold, the “Sensitizer MIC Assay (log2-fold reduction of MIC in presence of compound) JW2496-3” value (E. coli JW2496-3) is reported as 0 log2-fold and the “Sensitizer MIC Assay (log2-fold reduction of MIC in presence of compound) BW25113” value (E. coli BW25113) is reported as 0 log2-fold. For the same molecule, the “Bacteriostatic MIC Assay Result” value [1] was “non-bacteriostatic”.

With `CCOc1ccc2ccccc2c1C(=O)Nc1[nH]c(-c2ccc(F)c(N)c2)nc1C(N)=O` [Compound 3g, 2-(3-amino-4-fluorophenyl)-5-(2-ethoxy-1-naphthamido)-1H-imidazole-4-carboxamide] the “Sensitizer MIC Assay (log2-fold reduction of MIC in presence of compound) ATCC25922” value (E. coli ATCC 25922) was 0 log2-fold, the “Sensitizer MIC Assay (log2-fold reduction of MIC in presence of compound) JW2496-3” value (E. coli JW2496-3) was 0 log2-fold and the “Sensitizer MIC Assay (log2-fold reduction of MIC in presence of compound) BW25113” value (E. coli BW25113) was 0 log2-fold. The “Bacteriostatic MIC Assay Result” value [1] was “non-bacteriostatic”, the “Primary Assay ICmax” value (SurA) was 64 µM and the “Primary Assay Amplitude” value (SurA) was “low”.

For `CCOC(=O)COc1ccc(Cc2nc(C(N)=O)c(NC(=O)c3ccc(-c4ccccc4)cc3)[nH]2)cc1` [Compound 1a, Ethyl 2-(4-((5-([1,1′-biphenyl]-4-carboxamido)-4-carbamoyl-1H-imidazol-2-yl)methyl)-phenoxy)acetate], the “Sensitizer MIC Assay (log2-fold reduction of MIC in presence of compound) ATCC25922” value (E. coli ATCC 25922) was 0 log2-fold, the “Sensitizer MIC Assay (log2-fold reduction of MIC in presence of compound) JW2496-3” value (E. coli JW2496-3) was 0 log2-fold and the “Sensitizer MIC Assay (log2-fold reduction of MIC in presence of compound) BW25113” value (E. coli BW25113) was 0 log2-fold. For the same molecule, the “Bacteriostatic MIC Assay Result” value [1] was “non-bacteriostatic”, the “Primary Assay ICmax” value (SurA) was 16 µM and the “Primary Assay Amplitude” value (SurA) was “high”.

`NC(=O)c1nc(-c2cccc(N)c2)[nH]c1NC(=O)Cc1cccc2ccccc12` [Compound 3i, 2-(3-aminophenyl)-5-(2-(naphthalen-1-yl)acetamido)-1H-imidazole-4-carboxamide] was tested, and the “Bacteriostatic MIC Assay Result” value [1] was “non-bacteriostatic”.

In the case of `NC(=O)c1nc(Cc2ccc(O)cc2)[nH]c1NC(=O)c1ccc(-c2ccccc2)cc1` [Compound 2d, 5-([1,1′-biphenyl]-4-carboxamido)-2-(4-hydroxybenzyl)-1H-imidazole-4-carboxamide], the “Bacteriostatic MIC Assay Result” value [1] is reported as “non-bacteriostatic”, the “Primary Assay ICmax” value (SurA) is reported as 16 µM and the “Primary Assay Amplitude” value (SurA) is reported as “high”.

From US20240336573A1, “COMPOUND FOR THE TREATMENT AND PROPHYLAXIS OF INFECTIOUS DISEASES” (Eberhard Karls Universität Tübingen Medizinische Fakultät, priority 2021, published 2024)
